Test results published in patent publication US20060079696A1, “Substituted compounds derived from N-(benzyl)phenylacetamide, preparation and uses” (GENFIT, priority 2004, published 2006).

What was measured:
Male Sprague-Dawley rats = assay: Glycemia and insulinemia after oral administration in fasted rats; type: in vivo, rat
Description: In normal animals (as in man), the consequence of the administration of insulinotropic compounds is a significant increase in the plasmatic level of insulin. This induced hyperinsulinemia induces a reduction in glycemia. This example studies the evolution of glycemia and of insulinemia following oral administration of the inventive compounds in rats: the insulinotropic action of the compounds in vivo should induce a significant decrease of glycemia.
Male Sprague-Dawley rats (300-320 g) (CERJ—Le Genest St Isle-France) were used in order to carry out this experiment. The rats were fed with a standard diet of granular material; they had free access to food and drink and were kept in individual, ventilated cages in a 12 hr/12 hr light/dark rhythm. The animals were deprived of food for 16 hours prior to the experiment.
The compound was suspended in an aqueous carboxymethylcellulose solution (Sigma C4888) at 1% containing 0.1% Tween80 (Sigma P8074). The animals of the control group received the vehicle alone. The treated animals received a single administration of the compound (the suspension was administered by gavage at the rate of 10 ml/kg). Each group was made up of 11 animals. A 1st blood sample was taken by puncturing the retro-orbital sinus of the animals under volatile isoflurane anaesthesia: this sample makes up the initial time of the experiment. The substance or the vehicle were immediately administered to the animals by gavage, and blood samples were taken over time.
The animals' glycemia was measured in real time using a glucometer (Glucotrend2-Roche Diagnostic-France). The insulinemias were measured using an ELISA kit (Insulin Elisa Kit—Crystal Chem. USA). The method used was of the ELISA type: plasmatic insulin was specifically bound to anti-insulin monoclonal antibodies immobilised on the microtitration plate; simultaneously, an anti-insulin polyclonal guinea pig antibody was added to the reaction. The revelation of the reaction was guaranteed by an antibody coupled to peroxidase. These antibodies bind specifically to the guinea pig's immunoglobulins. The production of oxidised chromogen causes an increase in absorbance in proportion to the quantity of insulin present in the sample.

[1] = target: T1, ATP-dependent potassium channels (K+ATP) (Rattus norvegicus, UniProt Q09429); assay: [3H]glibenclamide binding to ATP-dependent potassium channels of rat cerebral cortex; conditions: FIG. 2
T1 construct: the potassium channels derive from a rat's cerebral cortex; tissue CEREP; host or cells: rat cerebral cortex
T1 sequence (Q09429 whole entry): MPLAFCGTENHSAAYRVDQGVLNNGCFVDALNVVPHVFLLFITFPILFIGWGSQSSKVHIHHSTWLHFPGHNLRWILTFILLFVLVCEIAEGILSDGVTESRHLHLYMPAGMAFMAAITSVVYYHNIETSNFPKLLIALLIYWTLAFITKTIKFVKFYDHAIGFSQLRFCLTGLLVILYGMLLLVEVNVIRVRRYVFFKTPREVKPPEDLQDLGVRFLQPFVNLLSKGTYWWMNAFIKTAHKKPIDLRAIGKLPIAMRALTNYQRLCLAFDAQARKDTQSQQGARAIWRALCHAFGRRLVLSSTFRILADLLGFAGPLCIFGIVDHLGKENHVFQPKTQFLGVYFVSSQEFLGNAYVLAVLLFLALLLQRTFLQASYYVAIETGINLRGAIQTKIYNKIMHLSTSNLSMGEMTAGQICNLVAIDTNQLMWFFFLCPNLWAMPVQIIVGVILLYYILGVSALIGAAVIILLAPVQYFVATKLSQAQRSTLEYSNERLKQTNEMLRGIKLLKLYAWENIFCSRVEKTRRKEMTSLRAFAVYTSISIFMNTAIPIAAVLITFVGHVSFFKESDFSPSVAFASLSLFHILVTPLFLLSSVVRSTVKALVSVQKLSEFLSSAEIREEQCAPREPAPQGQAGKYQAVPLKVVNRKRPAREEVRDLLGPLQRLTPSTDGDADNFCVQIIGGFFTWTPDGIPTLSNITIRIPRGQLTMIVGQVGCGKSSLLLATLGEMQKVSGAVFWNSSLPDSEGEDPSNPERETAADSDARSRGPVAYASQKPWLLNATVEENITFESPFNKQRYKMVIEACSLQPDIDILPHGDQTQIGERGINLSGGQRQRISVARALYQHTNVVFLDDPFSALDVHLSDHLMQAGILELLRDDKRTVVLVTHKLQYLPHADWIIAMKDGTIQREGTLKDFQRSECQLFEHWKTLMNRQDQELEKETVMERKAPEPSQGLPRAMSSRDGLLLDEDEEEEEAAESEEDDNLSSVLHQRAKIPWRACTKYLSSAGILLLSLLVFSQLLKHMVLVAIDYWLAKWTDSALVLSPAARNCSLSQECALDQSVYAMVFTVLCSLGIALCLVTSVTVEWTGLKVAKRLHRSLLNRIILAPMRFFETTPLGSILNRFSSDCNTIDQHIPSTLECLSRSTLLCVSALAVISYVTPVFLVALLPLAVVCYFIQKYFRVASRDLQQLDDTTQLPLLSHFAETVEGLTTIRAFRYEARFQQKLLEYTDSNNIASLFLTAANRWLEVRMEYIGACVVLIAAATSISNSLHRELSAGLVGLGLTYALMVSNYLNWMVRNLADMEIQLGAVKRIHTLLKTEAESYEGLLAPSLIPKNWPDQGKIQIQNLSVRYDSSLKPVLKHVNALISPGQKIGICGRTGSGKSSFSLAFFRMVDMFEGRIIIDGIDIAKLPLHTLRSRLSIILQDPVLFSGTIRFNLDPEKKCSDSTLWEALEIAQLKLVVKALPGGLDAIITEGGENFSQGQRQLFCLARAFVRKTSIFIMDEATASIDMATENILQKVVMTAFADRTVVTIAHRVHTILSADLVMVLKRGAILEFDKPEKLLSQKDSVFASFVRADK
T1 sequence (P70673 whole entry partner): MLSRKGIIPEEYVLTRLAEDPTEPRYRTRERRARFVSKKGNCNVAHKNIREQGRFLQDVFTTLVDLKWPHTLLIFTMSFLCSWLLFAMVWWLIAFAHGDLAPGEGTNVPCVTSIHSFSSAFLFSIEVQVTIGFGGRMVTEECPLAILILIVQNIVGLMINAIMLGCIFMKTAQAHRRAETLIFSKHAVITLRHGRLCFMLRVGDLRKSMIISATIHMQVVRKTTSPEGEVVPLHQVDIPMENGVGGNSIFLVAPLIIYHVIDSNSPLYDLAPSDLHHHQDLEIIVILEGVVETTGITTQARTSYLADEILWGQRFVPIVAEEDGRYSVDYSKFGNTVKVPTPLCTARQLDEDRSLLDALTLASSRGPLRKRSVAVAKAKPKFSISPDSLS
Summary of the method: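 Rat cerebral cortex membranes incubated 1 h at 22° C with 0.1 nM [3H]glibenclamide; nonspecific binding defined with 1 μM unlabelled glibenclamide. Compounds tested at 3–300 nM; values are percent inhibition of specific binding.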

[2] = tested on: isolated human pancreatic islets; assay: Insulin secretion by isolated human pancreatic islets; type: cell-based; conditions: 1 hour incubation
Method: Isolated islets of Langerhans were put together with compounds according to the invention. They were incubated for one hour, and then the supernatant was taken off. The insulin contained in the supernatant (which corresponds to the insulin secreted by the islets over 1 hr) was titrated. It was compared to the basal secretion of insulin, i.e. to the quantity of insulin secreted by the islets over 1 hour in the absence of a compound. The higher the induced insulin/basal insulin ratio, the stronger the insulinotropic potential of the compound.
This study was carried out in the cellular therapy of diabetes laboratory led by Professor Pattou (INSERM ERIT-M 0106, Faculty of medicine of Lille, France (59)). The protocols for the extraction of islets and culture are published (Riachy, Vandewalle et al. 2001). The islets were cultured in a CMRL1066 (Gibco BRL) medium containing 5.5 mmol/l glucose. They were put together with the compounds (+0.001% DMSO). The insulin secreted was measured after 1 hour incubation (titration of the supernatant after centrifugation and extraction as described in the reference) according to a radioimmunological titration method (BI-INSULIN IRMA kit, Sanofi Diagnostics Pasteur). Each condition was applied to 5 independent islets preparations, each containing 40 equivalent islets (40 IE). […]

CC(C)CC(NC(=O)Cc1ccc(OC(C)(C)C(=O)O)cc1)c1ccccc1N1CCCCC1 (stereo not drawn) [Compound 1, 2-[4-[1-(3-methyl-1-(2-(1-piperidinyl)phenyl)butyl)aminocarbonylmethyl]phenoxy]-2-methylpropanoic acid]
decrease in glycemia between T=0 and T=120 min (Male Sprague-Dawley rats; 50 mpk, oral, fasted rat): 48% | plasmatic insulin peak, time following administration (Male Sprague-Dawley rats; 50 mpk, oral, fasted rat): 15 min | hypoglycemia kinetics and amplitude compared with compound 52 (Male Sprague-Dawley rats; comparison of FIGS. 5a and 5c): faster and more intense | IC50 [1]: 14 nM | insulinotropic activity on human islets ([2]; 0.1 μM): not having any significant insulinotropic activity | insulin secreted in 1 hour versus non-treated islets ([2]; 1 μM): ~4 times
